`COC(=O)c1ccc2c(c1)n(Cc1ccc(OC)c(OC)c1)c(=O)n2[C@H]1CC[C@H](O)CC1` [Example 2(10), 3-(3,4-Dimethoxybenzyl)-1-(trans-4-hydroxycyclohexyl)-5-methoxycarbonyl-2,3-dihydro-1H-benzimidazol-2-one] gave a melting point of 148 to 149.5 °C.
`COc1ccc(Cn2c(=O)n([C@H]3CC[C@H](OC(C)=O)CC3)c3ccc([N+](=O)[O-])cc32)cc1OC` [Example 22(1), 1-(trans-4-Acetoxycyclohexyl)-3-(3,4-dimethoxybenzyl)-5-nitro-2,3-dihydro-1H-benzimidazol-2-one] showed a melting point of 207 to 207.5 °C.
For `COc1ccc(Cn2c(=O)n([C@H]3CC[C@H](OC(C)=O)CC3)c3ncc(C(F)(F)F)cc32)cc1Cl` [Example 2(15), 3-(trans-4-Acetoxycyclohexyl)-1-(3-chloro-4-methoxybenzyl)-6-trifluoromethyl-2,3-dihydro-1H-imidazo[4,5-b]pyridin-2-one], the melting point was 165 to 166 °C.
Compound `COc1ccc(Cn2c(=O)n([C@H]3CC[C@H](O)CC3)c3ccc(C(C)=O)cc32)cc1OC` [Example 2(7), 5-Acetyl-3-(3,4-dimethoxybenzyl)-1-(trans-4-hydroxycyclohexyl)-2,3-dihydro-1H-benzimidazol-2-one] has a melting point of 169 to 170 °C.
Work on `COc1ccc(Cn2c(=O)n(C3CCCCC3)c3ccc(C(F)(F)F)cc32)cc1Cl` [Example 2(37), 1-Cyclohexyl-3-(3-chloro-4-methoxybenzyl)-5-trifluoromethyl-2,3-dihydro-1H-benzimidazol-2-one] yielded a melting point of 160 to 161 °C.
With `COc1ccc(Cn2c(=O)n([C@H]3CC[C@H](O)CC3)c3ccc(C#N)cc32)cc1OC` [Example 2(5), 5-Cyano-3-(3,4-dimethoxybenzyl)-1-(trans-4-hydroxycyclohexyl)-2,3-dihydro-1H-benzimidazol-2-one] the melting point was 209 to 210 °C.
In the case of `COc1ccc(Cn2c(=O)n([C@H]3CC[C@H](O)CC3)c3ccc(C(N)=O)cc32)cc1Cl` [Example 20, 5-carbamoyl-3-(3-chloro-4-methoxybenzyl)-1-(trans-4-hydroxycyclohexyl)-2,3-dihydro-1H-benzimidazol-2-one], the melting point was 291.5 to 292 °C.
`COc1ccc(Cn2c(=O)n([C@H]3CC[C@H](NC(=O)OC(C)(C)C)CC3)c3ccc(C(F)(F)F)cc32)cc1Cl` [Example 2(99), 1-[trans-4-(N-tert-Butoxycarbonylamino)cyclohexyl]-3-(3-chloro-4-methoxybenzyl)-5-trifluoromethyl-2,3-dihydro-1H-benzimidazol-2-one] showed a melting point of 185.5 to 187 °C.
`CCOc1ccc(Cn2c(=O)n([C@H]3CC[C@H](O)CC3)c3ccc(C(F)(F)F)cc32)cc1Cl` [Example 2(29), 3-(3-Chloro-4-ethoxybenzyl)-1-(trans-4-hydroxycyclohexyl)-5-trifluoromethyl-2,3-dihydro-1H-benzimidazol-2-one] showed a melting point of 147.5 to 149 °C.
With `COc1ccc(Cn2c(=O)n([C@H]3CC[C@@H](O)CC3)c3ncc(C#N)cc32)cc1Cl` [Example 24, 1-(3-chloro-4-methoxybenzyl)-6-cyano-3-(cis-4-hydroxycyclohexyl)-2,3-dihydro-1H-imidazo[4,5-b]pyridin-2-one] the melting point was 197 to 198 °C.
Compound `COc1ccc(Cn2c(=O)n([C@H]3CC[C@H](O)CC3)c3ccc(C(F)(F)F)cc32)cc1F` [Example 2(30), 3-(3-Fluoro-4-methoxybenzyl)-1-(trans-4-hydroxycyclohexyl)-5-trifluoromethyl-2,3-dihydro-1H-benzimidazol-2-one] has a melting point of 178 to 179 °C.
For `COc1ccc(Cn2c(=O)n(-c3ccc4[nH]cnc4c3)c3ccc(C(F)(F)F)cc32)cc1OC` [Example 2(20), 1-(1H-Benzimidazol-5-yl)-3-(3,4-dimethoxybenzyl)-5-trifluoromethyl-2,3-dihydro-1H-benzimidazol-2-one], the melting point was 174 to 175 °C.
`COc1ccc(Cn2c(=O)n([C@H]3CC[C@H](O)CC3)c3ncc(C(F)(F)F)cc32)cc1OC` [Example 18, 1-(3,4-dimethoxybenzyl)-3-(trans-4-hydroxycyclohexyl)-6-trifluoromethyl-2,3-dihydro-1H-imidazo[4,5-b]pyridin-2-one] showed a melting point of 128 to 130 °C.
For `COc1ccc(Cn2c(=O)n([C@H]3CC[C@H](NC=O)CC3)c3ccc(C(F)(F)F)cc32)cc1OC` [Example 2(8), 3-(3,4-Dimethoxybenzyl)-1-(trans-4-formamidocyclohexyl)-5-trifluoromethyl-2,3-dihydro-1H-benzimidazol-2-one], the melting point was 158 to 160.5 °C.
`COc1ccc(Cn2c(=O)n([C@H]3CC[C@H](NC(N)=O)CC3)c3ccc(C(F)(F)F)cc32)cc1Cl` [Example 14(2), 1-(trans-4-Ureidocyclohexyl)-3-(3-chloro-4-methoxybenzyl)-5-trifluoromethyl-2,3-dihydro-1H-benzimidazol-2-one] showed a melting point of 164 to 165.5 °C.
Work on `COc1cc(Cn2c(=O)n(C3CCCC3)c3ccc([N+](=O)[O-])cc32)ccc1Cl` [Example 2(2), 3-(4-Chloro-3-methoxybenzyl)-1-cyclopentyl-5-nitro-2,3-dihydro-1H-benzimidazol-2-one] yielded a melting point of 170 to 171.5 °C.
`COc1ccc(Cn2c(=O)n([C@H]3CC[C@H](O)CC3)c3ccc(C(F)(F)F)cc32)cc1Cl` [Example 2(24), 3-(3-Chloro-4-methoxybenzyl)-1-(trans-4-hydroxycyclohexyl)-5-trifluoromethyl-2,3-dihydro-1H-benzimidazol-2-one] gave a melting point of 167 to 168 °C.
`COc1ccc(Cn2c(=O)n([C@H]3CC[C@H](N)CC3)c3ccc(C(F)(F)F)cc32)cc1Cl` [Example 8(4), 1-(trans-4-Aminocyclohexyl)-3-(3-chloro-4-methoxybenzyl)-5-trifluoromethyl-2,3-dihydro-1H-benzimidazol-2-one] showed a melting point of 167 to 168.5 °C.
`COc1ccc(Cn2c(=O)n([C@H]3CCN(C(=O)OC(C)(C)C)C3)c3ncc(C(F)(F)F)cc32)cc1Cl` [Example 2(103), 3-((S)-1-tert-Butoxycarbonylpyrrolidin-3-yl)-1-(3-chloro-4-methoxybenzyl)-6-trifluoromethyl-2,3-dihydro-1H-imidazo[4,5-b]pyridin-2-one] gave a melting point of 87 to 89 °C.
For `COc1ccc(Cn2c(=O)n([C@H]3CC[C@H](O)CC3)c3ccc(C(C)=O)cc32)cc1Cl` [Example 2(22), 5-Acetyl-3-(3-chloro-4-methoxybenzyl)-1-(trans-4-hydroxycyclohexyl)-2,3-dihydro-1H-benzimidazol-2-one], the melting point was 209 to 210 °C.
Work on `COc1ccc(Cn2c(=O)n([C@H]3CC[C@H](OC(C)=O)CC3)c3ncc(C(F)(F)F)cc32)cc1OC` [Example 2(12), 3-(trans-4-Acetoxycyclohexyl)-1-(3,4-dimethoxybenzyl)-6-trifluoromethyl-2,3-dihydro-1H-imidazo[4,5-b]pyridin-2-one] yielded a melting point of 130 to 133 °C.
In the case of `COc1ccc(Cn2c(=O)n([C@H]3CC[C@H](O)CC3)c3ccc([N+](=O)[O-])cc32)cc1C#N` [Example 2(97), 3-(3-Cyano-4-methoxybenzyl)-1-(trans-4-hydroxycyclohexyl)-5-nitro-2,3-dihydro-1H-benzimidazol-2-one], the melting point was 122 to 124 °C.
`COc1ccc(Cn2c(=O)n([C@H]3CC[C@H](O)CC3)c3ccc([N+](=O)[O-])cc32)cc1OC` [Example 2(3), 3-(3,4-Dimethoxybenzyl)-1-(trans-4-hydroxycyclohexyl)-5-nitro-2,3-dihydro-1H-benzimidazol-2-one] showed a melting point of 175 to 176 °C.

Source: patent US6582351B1, “Imidazopyridinone derivatives and their use as phosphodiesterase inhibitors” (Fujisawa Pharmaceutical Co., Ltd., priority 1999, dated 2003)
